This assay has as its system P388 leukemia ip, CD2F1 mice, survival T/C. Nature of the assay: NCI In Vivo Anticancer Drug Screen. Data for tumor model P388 Leukemia (intraperitoneal) in CD2F1 (CDF1) mice. The following applies: endpoint: median survival time, higher = longer survival. The method, boiled down:
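Mice carrying the transplanted tumor received test compound or vehicle. Survival was recorded in each group, and the value is the treated-group measurement divided by that of the vehicle-treated control group.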

Setting [1] is: dose: 12.5 mg/kg/injection, schedule: Q01DX009 (ip), vehicle: Klucel (hydroxypropylcellulose) (HPC).
Setting [2] is: dose: 50.0 mg/kg/injection, schedule: Q01DX009 (ip), vehicle: Klucel (hydroxypropylcellulose) (HPC).
Where [3] appears, read: dose: 100.0 mg/kg/injection, schedule: Q01DX009 (ip), vehicle: Klucel (hydroxypropylcellulose) (HPC).
Setting [4] is: dose: 200.0 mg/kg/injection, schedule: Q01DX009 (ip), vehicle: Klucel (hydroxypropylcellulose) (HPC).
Setting [5] is: dose: 25.0 mg/kg/injection, schedule: Q04DX002 (ip), vehicle: saline with Tween-80.
Setting [6] is: dose: 50.0 mg/kg/injection, schedule: Q04DX002 (ip), vehicle: saline with Tween-80.
Setting [7] is: dose: 100.0 mg/kg/injection, schedule: Q04DX002 (ip), vehicle: saline with Tween-80.
The mark [8] stands for this setting: dose: 100.0 mg/kg/injection, schedule: Q01DX001 (ip), vehicle: saline.
[9] abbreviates: dose: 200.0 mg/kg/injection, schedule: Q01DX001 (ip), vehicle: saline.
Where [10] appears, read: dose: 400.0 mg/kg/injection, schedule: Q01DX001 (ip), vehicle: saline.
The mark [11] stands for this setting: dose: 100.0 mg/kg/injection, schedule: Q04DX003 (ip), vehicle: Klucel (hydroxypropylcellulose) (HPC).
Where [12] appears, read: dose: 200.0 mg/kg/injection, schedule: Q04DX003 (ip), vehicle: Klucel (hydroxypropylcellulose) (HPC).
The mark [13] stands for this setting: dose: 400.0 mg/kg/injection, schedule: Q04DX003 (ip), vehicle: Klucel (hydroxypropylcellulose) (HPC).
Where [14] appears, read: dose: 12.5 mg/kg/injection, schedule: Q01DX009 (ip), vehicle: saline with Tween-80.
Setting [15] is: dose: 25.0 mg/kg/injection, schedule: Q01DX009 (ip), vehicle: saline with Tween-80.
The mark [16] stands for this setting: dose: 50.0 mg/kg/injection, schedule: Q01DX009 (ip), vehicle: saline with Tween-80.
Setting [17] is: dose: 100.0 mg/kg/injection, schedule: Q01DX009 (ip), vehicle: saline with Tween-80.

Each structure is given as a SMILES string. Where “and” joins values, the source holds several entries; their conditions need not be identical. Equal values may be shown once. Toxic doses and inconclusive results are not listed.

For `C=CCSc1nc2ccc(N3C(=O)CCC3=O)cc2s1`, the T/C was 105 % of control under setting [1]; 103 % of control (dose: 25.0 mg/kg/injection, schedule: Q01DX009 (ip), vehicle: Klucel (hydroxypropylcellulose) (HPC)); 101 % of control and 102 % of control under setting [2]; 92 % of control under setting [3]; 89 % of control under setting [4].

In the case of `CCC1(CC(=O)O)OCCc2c1[nH]c1c(C)c(F)ccc21` (stereo not drawn), the T/C runs as follows: under setting [2], 95 % of control; under setting [3], 96 % of control; under setting [4], 104 % of control.

As to `C=CC1CCCC[S+]1CC(=O)OCC` (stereo not drawn), the T/C reads like this: under setting [5], 91 % of control; under setting [6], 101 % of control; under setting [7], 103 % of control and 109 % of control.

As for `ClCCN(CCCl)c1ccc(CCCCN2CCCCC2)cc1`, the T/C was 153 % of control (dose: 6.25 mg/kg/injection, schedule: Q01DX009 (ip), vehicle: Klucel (hydroxypropylcellulose) (HPC)) and 183 % of control under setting [1].

In the case of `O=[N+]([O-])c1nccn1CC(O)CCN1CCOCC1` (stereo not drawn), the T/C (dose: 25.0 mg/kg/injection, schedule: Q01DX005 (ip), vehicle: saline) is 110 % of control; the T/C (dose: 50.0 mg/kg/injection, schedule: Q01DX005 (ip), vehicle: saline) was 102 % of control; the T/C (dose: 100.0 mg/kg/injection, schedule: Q01DX005 (ip), vehicle: saline) is 102 % of control; the T/C (dose: 200.0 mg/kg/injection, schedule: Q01DX005 (ip), vehicle: saline) was 106 % of control; the T/C (dose: 400.0 mg/kg/injection, schedule: Q01DX005 (ip), vehicle: saline) was 101 % of control.

On to `CCOP(=O)(OCC)c1ncn(Cc2ccccc2)c1N`, for which the T/C reads like this: under setting [8], 97 % of control; under setting [9], 104 % of control; under setting [10], 101 % of control.

For `CCOC(=O)c1ccc(N2C(=O)C3C4C=CC(O4)C3C2=O)cc1` (stereo not drawn), the T/C reads like this: under setting [11], 112 % of control; under setting [12], 105 % of control; under setting [13], 111 % of control.

As for `NC(=S)c1cccc(/C=N/Nc2ccccc2)n1`, the T/C runs as follows: under setting [11], 101 % of control; under setting [12], 99 % of control; under setting [13], 97 % of control.

As for `CN(C(=O)c1cc2c(cc1Br)OCO2)c1ccccc1`, the T/C (dose: 25.0 mg/kg/injection, schedule: Q01DX009 (ip), vehicle: other) was 100 % of control; the T/C (dose: 50.0 mg/kg/injection, schedule: Q01DX009 (ip), vehicle: other) is 98 % of control; the T/C (dose: 100.0 mg/kg/injection, schedule: Q01DX009 (ip), vehicle: other) is 111 % of control.

Take `CC(=O)NS(=O)(=O)c1ccc(NC(=O)c2ccco2)cc1`: the T/C by setting is: (dose: 50.0 mg/kg/injection, schedule: Q01DX009 (ip), vehicle: saline + alcohol) 98 % of control; (dose: 100.0 mg/kg/injection, schedule: Q01DX009 (ip), vehicle: saline + alcohol) 104 % of control; (dose: 200.0 mg/kg/injection, schedule: Q01DX009 (ip), vehicle: saline + alcohol) 91 % of control.

On to `CC(=O)OCC1OC(S[As](C2CCCCC2)C2CCCCC2)C(OC(C)=O)C(OC(C)=O)C1OC(C)=O` (stereo not drawn), for which the T/C is, setting by setting: (dose: 25.0 mg/kg/injection, schedule: Q04DX003 (ip), vehicle: Klucel (hydroxypropylcellulose) (HPC)) 109 % of control; (dose: 50.0 mg/kg/injection, schedule: Q04DX003 (ip), vehicle: Klucel (hydroxypropylcellulose) (HPC)) 116 % of control.

In the case of `O=c1[nH]c2ccc(Br)cc2c(=O)o1`, the T/C is 104 % of control under setting [14]; 102 % of control under setting [15]; 110 % of control under setting [16]; 100 % of control (dose: 100.0 mg/kg/injection, schedule: Q01DX001 (ip), vehicle: other); 114 % of control under setting [17]; 100 % of control (dose: 200.0 mg/kg/injection, schedule: Q01DX001 (ip), vehicle: other). In addition, under “dose: 400.0 mg/kg/injection, schedule: Q01DX001 (ip), vehicle: other”, the T/C was 95 % of control.

As for `COc1ccc(CS(=O)(=O)c2cnc(N/N=C/c3ccc([N+](=O)[O-])o3)nc2N)c(OC)c1`, the T/C runs as follows: under setting [8], 94 % of control; under setting [9], 94 % of control; under setting [10], 92 % of control.

For `Nc1nc(N)c2c(n1)NCN(O)C2`, the T/C by setting is: (dose: 50.0 mg/kg/injection, schedule: Q01DX005 (ip), vehicle: saline with Tween-80) 97 % of control; (dose: 100.0 mg/kg/injection, schedule: Q01DX005 (ip), vehicle: saline with Tween-80) 99 % of control; (dose: 200.0 mg/kg/injection, schedule: Q01DX005 (ip), vehicle: saline with Tween-80) 100 % of control.

With `COc1cc(NC(=O)CN(CCCl)CCCl)cc(OC)c1OC`, the T/C under setting [15] was 157 % of control; the T/C under setting [16] is 213 % of control; the T/C (dose: 100.0 mg/kg/injection, schedule: Q01DX009 (ip), vehicle: saline sonified) is 163 % of control; the T/C under setting [17] was 120 % of control; the T/C (dose: 132.0 mg/kg/injection, schedule: Q04DX003 (ip), vehicle: saline sonified) is 100 % of control; the T/C (dose: 200.0 mg/kg/injection, schedule: Q01DX009 (ip), vehicle: saline sonified) was 159 % of control. In addition, the T/C (dose: 200.0 mg/kg/injection, schedule: Q04DX003 (ip), vehicle: saline sonified) is 110 % of control.

On to `NC(=S)n1nc(-c2ccccc2)c(N=Nc2ccc([N+](=O)[O-])cc2)c1-c1ccccc1`, for which the T/C runs as follows: under setting [5], 100 % of control; under setting [6], 97 % of control; under setting [7], 87 % of control and 88 % of control; (dose: 400.0 mg/kg/injection, schedule: Q04DX002 (ip), vehicle: saline with Tween-80) 92 % of control.

For `CN(CC(=O)O)C(=S)c1ccccc1`, the T/C (dose: 100.0 mg/kg/injection, schedule: Q01DX001 (ip), vehicle: saline with Tween-80) was 95 % of control; the T/C (dose: 200.0 mg/kg/injection, schedule: Q01DX001 (ip), vehicle: saline with Tween-80) was 95 % of control; the T/C (dose: 400.0 mg/kg/injection, schedule: Q01DX001 (ip), vehicle: saline with Tween-80) was 95 % of control.

Consider `CCCCCN1C(=O)C2C3CCC(O3)C2C1=O` (stereo not drawn), for which the T/C is 109 % of control (dose: 50.0 mg/kg/injection, schedule: Q01DX005 (ip), vehicle: Klucel (hydroxypropylcellulose) (HPC)) and 109 % of control (dose: 100.0 mg/kg/injection, schedule: Q01DX005 (ip), vehicle: Klucel (hydroxypropylcellulose) (HPC)).

For the compound `OC(c1cc2c(Cl)cc(Cl)cc2c2cc(C(F)(F)F)ccc12)C1CCCCN1` (stereo not drawn), the T/C was 101 % of control (dose: 6.25 mg/kg/injection, schedule: Q01DX009 (ip), vehicle: saline with Tween-80); 100 % of control under setting [14]; 100 % of control under setting [15].

Take `COC(=O)/C=N/O`: the T/C (dose: 60.0 mg/kg/injection, schedule: Q01DX005 (ip), vehicle: saline) is 99 % of control; the T/C (dose: 120.0 mg/kg/injection, schedule: Q01DX005 (ip), vehicle: saline) is 102 % of control; the T/C (dose: 240.0 mg/kg/injection, schedule: Q01DX005 (ip), vehicle: saline) was 102 % of control.

For the compound `CCOC(=O)/C=C(/C)Sc1cc(O)ccc1O`, the T/C by setting is: under setting [16], 102 % of control; under setting [17], 111 % of control; (dose: 200.0 mg/kg/injection, schedule: Q01DX009 (ip), vehicle: saline with Tween-80) 109 % of control.
